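Where inhibition never reached the appropriate level, the endpoint shown equals the highest concentration tested. Otherwise, values were interpolated linearly from a five-concentration, 48-hour dose response in 96-well plates. Here, GI50 denotes the concentration required for 50% inhibition of growth. At the TGI there is no net growth.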
Legend:
Experiment in all cases: DTP human tumour cell line panel, 48 h; in the data active = GI50 below about 0.43 µM; inactive = the rest
[1] = tested on: K-562 leukemia
[2] = tested on: MALME-3M melanoma
[3] = tested on: RXF 393 renal
[4] = tested on: MOLT-4 leukemia
[5] = tested on: SK-MEL-28 melanoma
[6] = tested on: NCI-H460 lung
[7] = tested on: SF-539 CNS
[8] = tested on: HOP-92 NSCLC
[9] = tested on: T-47D breast
[10] = tested on: UACC-62 melanoma
[11] = tested on: MDA-MB-435
[12] = tested on: SN12C renal
[13] = tested on: HCC-2998 colon
[14] = tested on: OVCAR-4 ovarian
[15] = tested on: NCI-H522 lung
[16] = tested on: BT-549 breast
[17] = tested on: IGROV1 ovarian
[18] = tested on: 786-0 renal
[19] = tested on: SF-268 CNS
[20] = tested on: OVCAR-3 ovarian
[21] = tested on: PC-3 prostate
[22] = tested on: SK-MEL-2 melanoma
[23] = tested on: COLO 205 colon
[24] = tested on: HT29 colon
[25] = tested on: HCT-116 colon
[26] = tested on: UACC-257 melanoma
[27] = tested on: OVCAR-8 ovarian
[28] = tested on: OVCAR-5 ovarian
[29] = tested on: NCI-H23 lung
[30] = tested on: EKVX NSCLC
[31] = tested on: MDA-MB-231 breast
[32] = tested on: NCI/ADR-RES ovarian
[33] = tested on: KM12 colon
[34] = tested on: HOP-62 NSCLC
[35] = tested on: LOX IMVI melanoma
[36] = tested on: SNB-19 CNS
[37] = tested on: SW-620 colon
[38] = tested on: HCT-15 colon
[39] = tested on: M14 melanoma
[40] = tested on: MCF7 breast
[41] = tested on: U251 CNS
[42] = tested on: RPMI-8226 leukemia
[43] = tested on: ACHN renal
[44] = tested on: SK-MEL-5 melanoma
[45] = tested on: CCRF-CEM leukemia
[46] = tested on: SF-295 CNS
[47] = tested on: CAKI-1 renal
[48] = tested on: A549 NSCLC
[49] = tested on: UO-31 renal
[50] = tested on: NCI-H226 lung
[51] = tested on: HS 578T breast
[52] = tested on: DU-145 prostate
[53] = tested on: SR leukemia
[54] = tested on: SK-OV-3 ovarian
[55] = tested on: TK-10 renal
[56] = tested on: HL-60(TB) leukemia
[57] = tested on: A498 renal

O=C1C=CC(=O)c2c1ncc1c2nc2sccn21
35.3 µM: TGI [53]
61.2 µM: TGI [15]
39.5 µM: TGI [38]
45.2 µM: TGI [10]
37.2 µM: TGI [26]
40 µM: TGI [52]
40.1 µM: TGI [28]
77.7 µM: TGI [37]
47.4 µM: TGI [34] | TGI [42]
6.62 µM: TGI [45]
47.2 µM: TGI [5]
36.3 µM: TGI [18]
30.6 µM: TGI [21]
39 µM: TGI [31]
inactive: GI50 [1] 30.1 µM | GI50 [2] 12.7 µM | GI50 [3] 20.8 µM | GI50 [4] 3.57 µM | GI50 [5] 22.9 µM | GI50 [6] 27.2 µM | GI50 [7] 12.4 µM | GI50 [8] 14.9 µM | GI50 [9] 31.9 µM | GI50 [10] 21.8 µM | GI50 [11] 16.3 µM | GI50 [12] 23.3 µM | GI50 [13] 78.9 µM | GI50 [14] 27.7 µM | GI50 [15] 16 µM | GI50 [16] 12.4 µM | GI50 [17] 22.7 µM | GI50 [18] 15.5 µM | GI50 [19] 18.5 µM | GI50 [20] 20.3 µM | GI50 [21] 15.2 µM | GI50 [22] 42.8 µM | GI50 [23] 40.3 µM | GI50 [24] 37.6 µM | GI50 [25] 12.5 µM | GI50 [26] 20.2 µM | GI50 [27] 30.5 µM | GI50 [28] 19.8 µM | GI50 [29] 22.2 µM | GI50 [30] 20.2 µM | GI50 [31] 14.6 µM | GI50 [32] 29.3 µM | GI50 [33] > 100 µM | GI50 [34] 21.2 µM | GI50 [35] 29.9 µM | GI50 [36] 63.8 µM | GI50 [37] 14.7 µM | GI50 [38] 17.9 µM | GI50 [39] 15.7 µM | GI50 [40] 20.6 µM | GI50 [41] 18.3 µM | GI50 [42] 12.7 µM | GI50 [43] 21.7 µM | GI50 [44] 16.9 µM | GI50 [45] 2.07 µM | GI50 [46] 48.3 µM | GI50 [47] 19.5 µM | GI50 [48] 52.4 µM | GI50 [49] 13.8 µM | GI50 [50] 37.6 µM | GI50 [51] 12.7 µM | GI50 [52] 12.8 µM | GI50 [53] 3.53 µM | GI50 [54] 98.3 µM | GI50 [55] 18.3 µM
37.8 µM: TGI [25]
31.1 µM: TGI [8]
59.8 µM: TGI [14]
39.6 µM: TGI [43]
83.7 µM: TGI [29]
26.5 µM: TGI [2]
> 100 µM: TGI [1] | TGI [4] | TGI [6] | TGI [9] | TGI [13] | TGI [19] | TGI [22] | TGI [23] | TGI [24] | TGI [27] | TGI [32] | TGI [33] | TGI [35] | TGI [36] | TGI [40] | TGI [46] | TGI [48] | TGI [50] | TGI [54]
42.5 µM: TGI [47]
63.4 µM: TGI [20]
72.3 µM: TGI [49]
37.3 µM: TGI [44]
39.8 µM: TGI [39]
42.4 µM: TGI [7]
33.5 µM: TGI [55]
56.6 µM: TGI [17]
43.9 µM: TGI [41]
48.3 µM: TGI [12]
39.2 µM: TGI [11]
27.7 µM: TGI [16]
44.7 µM: TGI [30]
50.8 µM: TGI [51]
64.8 µM: TGI [3]

CC(C)CCC[C@@H](C)[C@H]1CCC2C3=CCC4C(=O)C=CC(=O)C4C3CC[C@@]21C (stereo partly specified)
0.855 µM: TGI [13]
0.359 µM: TGI [49]
1.32 µM: TGI [31]
0.719 µM: TGI [17]
1.17 µM: TGI [35]
inactive: GI50 [5] 0.449 µM | GI50 [10] 0.542 µM | GI50 [15] 0.803 µM | GI50 [19] 0.566 µM | GI50 [22] 1.14 µM | GI50 [24] 0.839 µM | GI50 [34] 0.552 µM | GI50 [36] 0.543 µM | GI50 [50] 0.849 µM | GI50 [51] 0.528 µM | GI50 [52] 0.507 µM | GI50 [55] 2.65 µM
1.72 µM: TGI [16]
0.67 µM: TGI [8]
active: GI50 [1] 0.139 µM | GI50 [2] 0.399 µM | GI50 [4] 0.373 µM | GI50 [6] 0.324 µM | GI50 [56] 0.27 µM | GI50 [8] 0.135 µM | GI50 [57] 0.301 µM | GI50 [9] 0.174 µM | GI50 [11] 0.254 µM | GI50 [12] 0.256 µM | GI50 [13] 0.274 µM | GI50 [14] 0.159 µM | GI50 [16] 0.306 µM | GI50 [17] 0.26 µM | GI50 [20] 0.348 µM | GI50 [21] 0.101 µM | GI50 [23] 0.0545 µM | GI50 [25] 0.0551 µM | GI50 [26] 0.372 µM | GI50 [27] 0.0726 µM | GI50 [28] 0.212 µM | GI50 [30] 0.279 µM | GI50 [31] 0.331 µM | GI50 [33] 0.338 µM | GI50 [35] 0.227 µM | GI50 [38] 0.235 µM | GI50 [42] 0.11 µM | GI50 [44] 0.419 µM | GI50 [45] 0.179 µM | GI50 [46] 0.172 µM | GI50 [48] 0.0836 µM | GI50 [49] 0.0721 µM | GI50 [53] 0.263 µM
0.576 µM: TGI [46]
> 20.9 µM: TGI [51]
0.183 µM: TGI [23]
> 100 µM: TGI [1] | TGI [4] | TGI [5] | TGI [56] | TGI [10] | TGI [12] | TGI [15] | TGI [19] | TGI [24] | TGI [28] | TGI [33] | TGI [34] | TGI [36] | TGI [38] | TGI [45] | TGI [50] | TGI [52] | TGI [53] | TGI [55]
2 µM: TGI [2]
1.15 µM: TGI [11]
2.66 µM: TGI [44]
1.03 µM: TGI [25]
1.14 µM: TGI [57]
0.498 µM: TGI [14]
2.59 µM: TGI [6]

From PubChem BioAssay (NCI)
